From patent US12662491B2 (Redona Therapeutics, Inc., priority 2020, dated 2026) come the findings set out here.

This assay concerns the target T1, Zcchc11 enzyme (Homo sapiens, UniProt Q5TAX3).
T1 construct: made in house; host or cells: HEK293 cells (Zcchc11); E. coli Rosetta II (LIN28A)
T1 sequence (Q5TAX3 212-1420): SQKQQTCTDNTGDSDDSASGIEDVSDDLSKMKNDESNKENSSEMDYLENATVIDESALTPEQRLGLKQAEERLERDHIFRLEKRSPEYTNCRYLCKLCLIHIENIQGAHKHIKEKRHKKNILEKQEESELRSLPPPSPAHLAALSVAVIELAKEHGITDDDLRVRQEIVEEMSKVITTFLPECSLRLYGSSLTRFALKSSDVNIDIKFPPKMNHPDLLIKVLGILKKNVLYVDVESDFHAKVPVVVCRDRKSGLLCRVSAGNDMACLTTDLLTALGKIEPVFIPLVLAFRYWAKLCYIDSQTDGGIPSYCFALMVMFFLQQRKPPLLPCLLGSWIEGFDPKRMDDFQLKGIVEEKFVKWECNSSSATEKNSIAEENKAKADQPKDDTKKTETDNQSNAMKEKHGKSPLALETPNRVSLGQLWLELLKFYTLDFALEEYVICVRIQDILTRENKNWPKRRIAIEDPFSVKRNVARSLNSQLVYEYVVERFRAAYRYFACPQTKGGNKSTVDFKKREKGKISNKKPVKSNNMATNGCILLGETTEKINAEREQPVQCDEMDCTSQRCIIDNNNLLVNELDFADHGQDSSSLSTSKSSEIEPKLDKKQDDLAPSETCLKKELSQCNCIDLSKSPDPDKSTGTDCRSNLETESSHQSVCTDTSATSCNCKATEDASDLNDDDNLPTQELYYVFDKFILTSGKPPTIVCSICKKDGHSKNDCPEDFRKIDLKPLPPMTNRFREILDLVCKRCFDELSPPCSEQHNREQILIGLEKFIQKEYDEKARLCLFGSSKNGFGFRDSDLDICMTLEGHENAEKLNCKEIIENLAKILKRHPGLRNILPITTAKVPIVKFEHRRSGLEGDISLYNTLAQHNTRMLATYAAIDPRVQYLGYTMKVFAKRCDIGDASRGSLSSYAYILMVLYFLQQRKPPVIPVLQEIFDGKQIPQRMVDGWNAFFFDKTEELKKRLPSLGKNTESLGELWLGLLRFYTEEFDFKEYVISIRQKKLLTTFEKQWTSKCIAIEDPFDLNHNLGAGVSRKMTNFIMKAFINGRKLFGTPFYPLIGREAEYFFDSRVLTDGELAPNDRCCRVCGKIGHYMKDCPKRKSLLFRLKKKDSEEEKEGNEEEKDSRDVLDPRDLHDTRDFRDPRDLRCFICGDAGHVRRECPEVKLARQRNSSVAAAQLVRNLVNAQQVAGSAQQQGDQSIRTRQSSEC
The experiment in a line: TUTase assay (Zcchc11 assay, Lin28a-dependent polyuridylation of pre-let-7). Type of assay: biochemical. The settings on record: Lin28a-dependent Zcchc11 (Z11) TUTase activity; read-out: Potency Lin28a-dep Z11 IC50. Here is the method: The purpose of the Zcchc11 assay is to determine compound potency against Zcchc11 enzyme through the measurement of IC50. Compound inhibition is measured as a function of polyuridine tails added to RNA substrates in the presence of active TUTase, UTP, and inhibitor. The Zcchc11 assay was done in a black, non-binding, 384 well plate (Corning #3575). All steps were performed at room temperature. For a typical assay, a 29 ul aliquot of assay buffer (50 mM HEPES pH 7.3, 150 mM KCl, 5 mM MgCl2, 10 mM DTT, 0.01% Triton X-100, 40 U/ml RNAsin (Promega)) containing LIN28A protein (final concentration: 10 nM) is added to each well. Next, 1 ul of compound in 100% DMSO is transferred from a compound dilution plate in which the compound is serially diluted. Next, 10 ul of a 5× mix of Zcchc11 and RNA substrate (5′-fluorescein labeled pre-let-7 miRNA (Dharmacon)) is added (final concentrations: 0.2 nM and 2 nM, respectively). The plate is placed on a plate shaker for 30 seconds to produce mixing, then incubated for 30 minutes. Next, 10 ul of a 5× mix of UTP and the quenching probe (3′-rhodamine labeled A20, polyadenosine nucleotide, (IDT)) is added (final concentrations: 5 uM and 4 nM, respectively). The plate is immediately placed in a Biotek Cytation 5 plate reader, and the time-dependent decrease in fluorescein fluorescence resulting from annealing of the A20 probe to polyuridine tails is recorded, using the kinetics mode of the reader. Reaction rates are obtained using linear fits to the early portion of progress curves. IC50 values are calculated using a four parameter fit with 100% enzyme activity determined from the DMSO control and 0% activity from control samples lacking UTP.
The LIN28A protein was expressed in and purified from E. coli, strain Rosetta II (Novagen). The entire coding sequence of the human, wild-type protein was cloned into expression vector pMAL (NEB), down-stream from a maltose-binding protein tag. The linker sequence contained a TEV protease cleavage site. The protein was purified from bacterial extracts using an MBP-Trap column (GE Healthcare Life Sciences), followed by tag cleavage and removal of the tag by ion-exchange chromatography. When necessary, contaminating bacterial RNA was removed using the procedure describe by Faehnle C R. et al. (2017) Multi-domain utilization by TUT4 and TUT7 in control of let-7 biogenesis. Nat Struct Mol Biol, 24:658-665.
The Zcchc11 protein was expressed in and purified from HEK293 cells. A truncated protein comprising residues 212-1420 of the human sequence was cloned into expression vector pTT5 (Viva Biotech) down-stream from a maltose-binding protein tag. The linker sequence contained a TEV protease cleavage site, and a FLAG tag was added to the carboxyl terminus of the protein. The protein was purified from cell extracts using an MBP-Trap column (GE Healthcare Life Sciences), followed by tag cleavage and further enrichment of the full length construct using anti-FLAG affinity media (Sigma Aldrich).
“+” represents an IC50 value that is greater than 50 μM; “++” represents an IC50 value that is greater than 10 μM and equal to or less than 50 μM; “+++” represents an IC50 value that is greater than 1 μM and equal to or less than 10 μM; and “++++” represents an IC50 value that is equal to or less than 1 μM.

Where only a bound is given, the exact number is not on record here.

For `O=C(O)c1cn(-c2cnccn2)c2cc(N3CCC[C@@H]3COc3ncccc3F)c(F)cc2c1=O` (racemic) [Compound 174, rac-(R)-6-fluoro-7-(2-(((3-fluoropyridin-2-yl)oxy)methyl)pyrrolidin-1-yl)-4-oxo-1-(pyrazin-2-yl)-1,4-dihydro-quinoline-3-carboxylic acid], the IC50 is at most 1 µM.

With `CN1CC(n2cc(-n3cc(C(=O)O)c(=O)c4cc(Cl)c(N5CCC[C@@H]5COc5ncccc5Cl)cc43)cn2)C1` (racemic) [Compound 175, rac-(R)-6-chloro-7-(2-(((3-chloropyridin-2-yl)oxy)methyl)pyrrolidin-1-yl)-1-(1-(1-methylazetidin-3-yl)-1H-pyrazol-4-yl)-4-oxo-1,4-dihydro-quinoline-3-carboxylic acid], the IC50 is at most 1 µM.

For `CN(C(=O)[C@H]1CCCN1c1cc2c(cc1Cl)c(=O)c(C(=O)O)cn2-c1cnccn1)c1ccccn1` (racemic) [Compound 178, rac-(R)-6-chloro-7-(2-(methyl (pyridin-2-yl)carbamoyl)pyrrolidin-1-yl)-4-oxo-1-(pyrazin-2-yl)-1,4-dihydro-quinoline-3-carboxylic acid], the concentration for half-maximal inhibition (IC50) is above 50 µM.

On to `Cc1c(-n2cc(C(=O)O)c(=O)c3cc(Cl)c(N4CCC[C@@H]4COc4ncccc4Cl)cc32)cnn1C` (racemic) [Compound 179, rac-(R)-6-chloro-7-(2-(((3-chloropyridin-2-yl)oxy)methyl)pyrrolidin-1-yl)-1-(1,5-dimethyl-1H-pyrazol-4-yl)-4-oxo-1,4-dihydro-quinoline-3-carboxylic acid], for which the IC50 is at most 1 µM.

Regarding `Nc1ccc(-n2cc(C(=O)O)c(=O)c3cc(Cl)c(N4CC(c5ccccn5)C[C@@H]4COc4ncccc4Cl)cc32)cn1` (mixture of isomers) [Compound 180, rac-1-(6-aminopyridin-3-yl)-6-chloro-7-((2R)-2-(((3-chloropyridin-2-yl)oxy)methyl)-4-(pyridin-2-yl)pyrrolidin-1-yl)-4-oxo-1,4-dihydro-quinoline-3-carboxylic acid], the IC50 is at most 1 µM.

Regarding `O=C(O)c1cn(-c2cnc3c(n2)COC3)c2cc(N3CCC[C@@H]3COc3ncccc3Cl)c(Cl)cc2c1=O` (racemic) [Compound 182, rac-(R)-6-chloro-7-(2-(((3-chloropyridin-2-yl)oxy)methyl)pyrrolidin-1-yl)-1-(5,7-dihydrofuro [3,4-b]pyrazin-2-yl)-4-oxo-1,4-dihydro-quinoline-3-carboxylic acid], the IC50 was at most 1 µM.

`Cn1cc(-n2cc(C(=O)O)c(=O)c3cc(C#N)c(N4CCC[C@@H]4COc4ncccc4F)nc32)cn1` (racemic) [Compound 183, rac-(R)-6-cyano-7-(2-(((3-fluoropyridin-2-yl)oxy)methyl)pyrrolidin-1-yl)-1-(1-methyl-1H-pyrazol-4-yl)-4-oxo-1,4-dihydro-1,8-naphthyridine-3-carboxylic acid]: the IC50 was 1 to 10 µM.

For `CN(C)C1CN(c2ccc(-n3cc(C(=O)O)c(=O)c4cc(Cl)c(N5CCC[C@@]5(C)COc5ncccc5Cl)nc43)cn2)C1` (racemic) [Compound 186, rac-(R)-6-chloro-7-(2-(((3-chloropyridin-2-yl)oxy)methyl)-2-methyl-pyrrolidin-1-yl)-1-(6-(3-(dimethyl-amino)azetidin-1-yl)pyridin-3-yl)-4-oxo-1,4-dihydro-1,8-naphthyridine-3-carboxylic acid], the IC50 was at most 1 µM.

As for `Cc1ccc(Cl)c(OC[C@H]2CCCN2c2cc3c(cc2Cl)c(=O)c(C(=O)O)cn3-c2ccc(N3CC(N(C)C)C3)nc2)n1` (racemic) [Compound 187, rac-(R)-6-chloro-7-(2-(((3-chloro-6-methylpyridin-2-yl)oxy)methyl)pyrrolidin-1-yl)-1-(6-(3-(dimethyl-amino)azetidin-1-yl)pyridin-3-yl)-4-oxo-1,4-dihydro-quinoline-3-carboxylic acid], the concentration for half-maximal inhibition (IC50) was at most 1 µM.

Consider `CN(C)C1CN(c2ccc(-n3cc(C(=O)O)c(=O)c4cc(Cl)c(N5CC(c6cnn(C)c6)C[C@@H]5COc5ncccc5Cl)cc43)cn2)C1` (mixture of isomers) [Compound 188, rac-6-chloro-7-((2R)-2-(((3-chloropyridin-2-yl)oxy)methyl)-4-(1-methyl-1H-pyrazol-4-yl)pyrrolidin-1-yl)-1-(6-(3-(dimethyl-amino)azetidin-1-yl)pyridin-3-yl)-4-oxo-1,4-dihydro-quinoline-3-carboxylic acid], for which the half-inhibitory concentration (IC50) was at most 1 µM.

Turning to `CN(C)C1CN(c2ccc(-n3cc(C(=O)O)c(=O)c4cc(F)c(N5CC(c6ccc(O)nc6)C[C@@H]5COc5ncccc5Cl)cc43)cn2)C1` (mixture of isomers) [Compound 189, rac-7-((2R)-2-(((3-chloropyridin-2-yl)oxy)methyl)-4-(6-hydroxy-pyridin-3-yl)pyrrolidin-1-yl)-1-(6-(3-(dimethyl-amino)azetidin-1-yl)pyridin-3-yl)-6-fluoro-4-oxo-1,4-dihydro-quinoline-3-carboxylic acid], the IC50 was at most 1 µM.

Consider `Nc1ccc(-n2cc(C(=O)O)c(=O)c3cc(Cl)c(N4CCC[C@@H]4COc4ncccc4Cl)nc32)cn1` (racemic) [Compound 190, rac-(R)-1-(6-aminopyridin-3-yl)-6-chloro-7-(2-(((3-chloropyridin-2-yl)oxy)methyl)pyrrolidin-1-yl)-4-oxo-1,4-dihydro-1,8-naphthyridine-3-carboxylic acid], for which the IC50 was at most 1 µM.

For `Cn1cc(-n2cc(C(=O)O)c(=O)c3cc(Cl)c(N4CCC[C@@H]4COc4ncccc4Cl)nc32)cn1` (racemic) [Compound 191, rac-(R)-6-chloro-7-(2-(((3-chloropyridin-2-yl)oxy)methyl)pyrrolidin-1-yl)-1-(1-methyl-1H-pyrazol-4-yl)-4-oxo-1,4-dihydro-1,8-naphthyridine-3-carboxylic acid], the IC50 was at most 1 µM.

The term IC50 denotes the concentration needed to halve the response being measured.
